The values that follow are results of earlier work, collected in patent US20070110715A1, “Treatment of alzheimer's disease” (Ares Trading S.A., priority 2003, published 2007).

This data set deals with Alzheimer's disease risk. The conditions noted are these: postmenopausal women using hormone replacement.

Regarding estrogen, the “reduction in disease risk (AD)” value is reported as roughly 50%.
